Where a name gives a salt, the structure may show the parent alone.
What follows are molecules tested against hATX/ENPP2 (Homo sapiens, UniProt Q13822) (assay: hATX/ENPP2 biochemical assay using 16:0-LPC as substrate (Amplex Red/choline oxidase/HRP fluorescence)). Details: hENPP2 2.5 nM, LPC (16:0) substrate.
In short: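 Enzyme preincubated with compounds 15 min at room temperature in 50 mM Tris-HCl pH 8.0, 140 mM NaCl, 5 mM CaCl2, 0.01% Triton X-100. Reaction started with 80 μM LPC (16:0) stock plus Amplex Red/choline oxidase/HRP mix; fluorescence (ex 530/em 590 nm) read kinetically. IC50 from slope between 60 and 70 min.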

IC50	Compound
20 to 200 nM	CCc1nc2ccc(-c3cnc(N4CCC(NC5(C#N)CC5)CC4)nc3)cn2c1N(C)c1nc(-c2ccc(F)cc2)c(C#N)s1 [Compound 17, 2-((6-(2-(4-((1-cyanocyclopropyl)amino)piperidin-1-yl)pyrimidin-5-yl)-2-ethylimidazo[1,2-a]pyridin-3-yl)(methyl)amino)-4-(4-fluorophenyl)thiazole-5-carbonitrile]
≤ 20 nM	CCc1nc2ccc(-c3cnc(N4CCC(NC5CCNCC5)CC4)nc3)cn2c1N(C)c1nc(-c2ccc(F)cc2)c(C#N)s1 [Compound 69 formate, 2-((2-ethyl-6-(2-(4-(piperidin-4-ylamino)piperidin-1-yl)pyrimidin-5-yl)imidazo[1,2-a]pyridin-3-yl)(methyl)amino)-4-(4-fluorophenyl) thiazole-5-carbonitrile formate]
≤ 20 nM	CCc1nc2ccc(-c3cnc(N4CCC(NC(=O)C5CCNCC5)CC4)nc3)cn2c1N(C)c1nc(-c2ccc(F)cc2)c(C#N)s1 [Compound 84, N-(1-(5-(3-((5-cyano-4-(4-fluorophenyl)thiazol-2-yl)(methyl)amino)-2-ethylimidazo[1,2-a]pyridin-6-yl)pyrimidin-2-yl)piperidin-4-yl)piperidine-4-carboxamide]
20 to 200 nM	CCc1nc2ccc(-c3cnc(N4CCNCC4)nc3)cn2c1N(C)c1nc(-c2ccc(F)cc2)c(C#N)s1 [Compound 4, 2-((2-ethyl-6-(2-(piperazin-1-yl)pyrimidin-5-yl)imidazo[1,2-a]pyridin-3-yl)(methyl)amino)-4-(4-fluorophenyl)thiazole-5-carbonitrile]

The next lines start with the molecule.

Compound	IC50
CCc1nc2ccc(-c3cnc(C4CCN(CC(=O)N5CCCC5)CC4)nc3)cn2c1N(C)c1nc(-c2ccc(F)cc2)c(C#N)s1 [Compound 104, 2-((2-ethyl-6-(2-(1-(2-oxo-2-(pyrrolidin-1-yl)ethyl)piperidin-4-yl)pyrimidin-5-yl)imidazo[1,2-a]pyridin-3-yl)(methyl)amino)-4-(4-fluorophenyl)thiazole-5-carbonitrile]	20 to 200 nM
CCc1nc2ccc(-c3cnc(C(=O)NC4CCNCC4)nc3)cn2c1N(C)c1nc(-c2ccc(F)cc2)c(C#N)s1 [Compound 51, 5-(3-((5-cyano-4-(4-fluorophenyl)thiazol-2-yl) (methyl)amino)-2-ethylimidazo[1,2-a]pyridin-6-yl)-N-(piperidin-4-yl)pyrimidine-2-carboxamide]	20 to 200 nM
CCc1nc2ccc(-c3cnc(CC(=O)N4CC(NC)C4)nc3)cn2c1N(C)c1nc(-c2ccc(F)cc2)c(C#N)s1 [Compound 54, 2-((2-ethyl-6-(2-(2-(3-(methylamino)azetidin-1-yl)-2-oxoethyl)pyrimidin-5-yl)imidazo[1,2-a]pyridin-3-yl)(methyl)amino)-4-(4-fluorophenyl) thiazole-5-carbonitrile]	20 to 200 nM
CCc1nc2ccc(-c3cnc(N4CC(C(=O)NC5(C#N)CC5)C4)nc3)cn2c1N(C)c1nc(-c2ccc(F)cc2)c(C#N)s1 [Compound 32, 1-(5-(3-((5-cyano-4-(4-fluorophenyl)thiazol-2-yl)(methyl)amino)-2-ethylimidazo[1,2-a]pyridin-6-yl)pyrimidin-2-yl)-N-(1-cyanocyclopropyl)azetidine-3-carboxamide]	≤ 20 nM
CCc1nc2ccc(-c3cnc(N4CCN(C(=O)[C@@H]5C[C@@H](O)CN5)CC4)nc3)cn2c1N(C)c1nc(-c2ccc(F)cc2)c(C#N)s1 [Compound 5, 2-((2-ethyl-6-(2-(4-((2S,4R)-4-hydroxypyrrolidine-2-carbonyl)piperazin-1-yl)pyrimidin-5-yl)imidazo[1,2-a]pyridin-3-yl)(methyl)amino)-4-(4-fluorophenyl)thiazole-5-carbonitrile]	≤ 20 nM
CCc1nc2ccc(-c3cnc(N4CC(C(=O)NC5(CO)CC5)C4)nc3)cn2c1N(C)c1nc(-c2ccc(F)cc2)c(C#N)s1 [Compound 33, 1-(5-(3-((5-cyano-4-(4-fluorophenyl)thiazol-2-yl)(methyl)amino)-2-ethylimidazo[1,2-a]pyridin-6-yl)pyrimidin-2-yl)-N-(1-(hydroxylmethyl)cyclopropyl)azetidine-3-carboxamide]	≤ 20 nM
